The record followed here is article PMC5989226 (Nature Communications, 2018).

The structures appear in SMILES notation.

Format in all cases: binding
The target of assay [1] is T1, DELAY OF GERMINATION1 (DOG1) (Arabidopsis thaliana, UniProt A0SVK0).
T1 sequence (A0SVK0 1-291): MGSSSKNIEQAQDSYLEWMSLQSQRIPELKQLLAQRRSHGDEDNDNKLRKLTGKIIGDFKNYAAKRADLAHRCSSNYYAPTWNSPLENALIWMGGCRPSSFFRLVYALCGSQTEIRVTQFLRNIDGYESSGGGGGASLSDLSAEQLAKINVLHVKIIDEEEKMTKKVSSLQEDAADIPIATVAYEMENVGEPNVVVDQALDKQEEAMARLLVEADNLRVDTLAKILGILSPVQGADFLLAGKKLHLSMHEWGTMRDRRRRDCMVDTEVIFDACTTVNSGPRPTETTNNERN
The experiment in a line: UV-visible absorption titration of apo-DOG1 with hemin (Soret peak, […] nm), […] fit.

Assay [2] addresses T2, DELAY OF GERMINATION1 (DOG1) (Arabidopsis thaliana, UniProt A0SVK0, H245A).
T2 construct: full-length, N-terminal His6-tagged
The experiment in a line: UV-visible absorption hemin titration ([…] nm).

Assay [3] has as its target T3, DELAY OF GERMINATION1 (DOG1) (Arabidopsis thaliana, UniProt A0SVK0, H245A/H249A).
T3 construct: full-length, N-terminal His6-tagged
The experiment in a line: UV-visible absorption hemin titration ([…] nm).

The Kd is the equilibrium constant for the complex coming apart.

T2 sequence (A0SVK0 whole entry H245A): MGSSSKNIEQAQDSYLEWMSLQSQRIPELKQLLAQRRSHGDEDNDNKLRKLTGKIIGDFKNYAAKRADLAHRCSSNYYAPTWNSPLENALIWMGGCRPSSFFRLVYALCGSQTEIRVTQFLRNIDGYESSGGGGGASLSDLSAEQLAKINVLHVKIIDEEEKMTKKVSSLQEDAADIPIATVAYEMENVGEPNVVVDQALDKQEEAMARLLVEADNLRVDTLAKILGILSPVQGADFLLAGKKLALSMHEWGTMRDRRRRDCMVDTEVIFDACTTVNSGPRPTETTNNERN
T3 sequence (A0SVK0 whole entry H245A/H249A): as the sequence (A0SVK0 whole entry H245A) above, with H249A counted along it

`C=CC1=C(C)C2=Cc3c(C=C)c(C)c4[n]3[Fe]([Cl])[n]3c(c(C)c(CCC(=O)O)c3=CC3=NC(=C4)C(C)=C3CCC(=O)O)=CC1=N2` [hemin]: the Kd in assay [1] stood at 59 nM; in assay [2], 129 nM; in assay [3] it was 918 nM.
